Publication PMC9738591, “N-[1,3-Dialkyl(aryl)-2-oxoimidazolidin-4-ylidene]-aryl(alkyl)sulphonamides as Novel Selective Human Cannabinoid Type 2 Receptor (hCB2R) Ligands; Insights into the Mechanism of Receptor Activation/Deactivation” (Molecules, 2022)
Like-named read-outs stand apart in the source and are kept apart here.

Columns and labels:
[1] = biological target: T1, human recombinant CB1R (Homo sapiens, UniProt P21554); experiment: Competition binding assay, displacement of [3H]-CP-55,940 from membranes of HEK-293 cells overexpressing CB1R
T1 construct: purchased Perkin-Elmer, Italy; host or cells: HEK-293 cells (membranes)
T1 sequence (P21554 whole entry): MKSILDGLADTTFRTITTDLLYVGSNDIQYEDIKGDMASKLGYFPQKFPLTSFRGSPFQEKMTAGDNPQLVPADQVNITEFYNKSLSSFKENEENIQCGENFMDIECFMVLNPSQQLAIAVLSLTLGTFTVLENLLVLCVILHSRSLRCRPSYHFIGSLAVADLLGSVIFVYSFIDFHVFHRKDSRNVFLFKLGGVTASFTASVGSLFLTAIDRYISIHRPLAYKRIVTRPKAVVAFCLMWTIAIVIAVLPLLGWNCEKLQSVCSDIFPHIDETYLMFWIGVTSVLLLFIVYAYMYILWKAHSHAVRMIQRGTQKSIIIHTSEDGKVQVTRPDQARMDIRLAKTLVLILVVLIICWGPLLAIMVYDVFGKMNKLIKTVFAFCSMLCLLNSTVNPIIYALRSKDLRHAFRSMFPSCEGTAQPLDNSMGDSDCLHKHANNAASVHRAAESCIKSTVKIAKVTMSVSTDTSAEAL
Method: (§1) The binding affinities (Ki values) of the compounds for human recombinant hCB1R and hCB2R were determined as previously described, using SR144528 as a reference compound [30], and are reported in Table 1.
(§2) Compound affinity for CB1R and CB2R was measured as previously reported. […] Competition curves were performed by displacing [^3H]-CP-55 940 with increasing concentrations of compounds (0.1 nM–10 or 25 μM). […] All compounds were tested following the procedure described by the manufacturer (Perkin-Elmer, Italy). Displacement curves were generated by incubating drugs with [^3H]-CP-55 940 for 90 min at 30 °C. Ki values were calculated by applying the Cheng−Prusoff equation to the IC50 values for the displacement of the bound radioligand by increasing concentrations of the test compound. Data represent the mean values of three independent experiments performed in duplicate and are expressed as the average of Ki (µM) ± standard deviation. Data were analyzed using PRISM.9.3 software (GraphPad Software Inc, San Diego, CA, USA).

[2] = biological target: T2, human CB2R (Homo sapiens, UniProt P34972); experiment: cAMP Hunter assay, effect on NKH-477-induced cAMP levels (agonist mode); type: cell-based; settings: for Effect on NKH-477-induced cAMP levels (functional behavior): CHO-K1 cells overexpressing human CB2R, compound alone
T2 sequence (P34972 whole entry): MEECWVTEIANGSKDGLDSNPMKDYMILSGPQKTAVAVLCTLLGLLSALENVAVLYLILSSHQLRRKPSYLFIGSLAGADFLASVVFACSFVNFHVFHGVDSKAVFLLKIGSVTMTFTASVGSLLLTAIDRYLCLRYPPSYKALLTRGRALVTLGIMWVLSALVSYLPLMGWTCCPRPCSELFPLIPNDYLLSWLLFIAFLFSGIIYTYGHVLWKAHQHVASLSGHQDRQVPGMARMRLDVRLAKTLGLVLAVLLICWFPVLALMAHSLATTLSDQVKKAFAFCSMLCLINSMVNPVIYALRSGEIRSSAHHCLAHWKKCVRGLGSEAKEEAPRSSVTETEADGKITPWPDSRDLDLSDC
Method: The above-mentioned compounds were tested for their functional activity.
Gi-coupled cAMP modulation was measured following the manufacturer’s protocol (Eurofins, Fremont, CA, USA), as previously reported. Briefly, CHO-K1 cells overexpressing the human CB2R were plated into a 96-well plate (10,000 cells/well) and incubated overnight at 37 °C, 5% CO2. Media was aspirated and replaced with 30 μL of assay buffer. Cells were incubated for 30 min at 37 °C with 15 μL of 3× dose−response solutions of samples prepared in the presence of a cell assay buffer containing 3× of 25 μM NKH-477 solution to stimulate adenylate cyclase and enhance basal cAMP levels. For those compounds not showing a decrease in cAMP levels, the effect upon receptor activation in the presence of the JWH-133 selective agonist was investigated. Cells were pre-incubated with samples (15 min at 37 °C at 6× the final desired concentration), followed by 30 min incubation with the JWH-133 agonist challenge at the EC80 concentration (EC80 = 4 μM, previously determined in separate experiments) in the presence of NKH-477 to stimulate adenylate cyclase and enhance cAMP levels. Cell lysis and cAMP detection were performed as per the manufacturer’s protocol. Luminescence measurements were performed using a GloMax Multi Detection System (Promega, Italy). Data are reported as the means ± SEM of three independent experiments conducted in triplicate and were normalized considering the NKH-477 stimulus alone as 100% of the response. Data were analyzed using PRISM.9.3 software (GraphPad Software Inc, San Diego, CA, USA).
Figure 7 Concentration-response curves of compounds in the cAMP Hunter assay. Curves show the effect of increasing concentrations of compounds on NKH-477-induced cAMP levels in stable CHO cells expressing the human CB2. Data are reported as the means ± SEM of three independent experiments conducted in triplicate, normalized to the maximal and minimal responses.

[3] = biological target: T2, human CB2R; experiment: Competition binding assay, displacement of [3H]-CP-55,940 from membranes of HEK-293 cells overexpressing CB2R; parameters: purchased Perkin-Elmer, Italy; host or cells: HEK-293 cells (membranes); settings: for inhibition at 25 µM: max conc. tested 25 µM
Method: as §1, §2

[4] = biological target: T2, human CB2R; experiment: cAMP Hunter assay in the presence of JWH-133 agonist challenge (antagonist mode); type: cell-based
Method: Only a small displacement was observed and only at the highest concentration (Figure 8). We reasoned that the discrepancy with the predictions was mainly due to the chemical–physical features of the molecule and that the lack of antagonism was caused by issues related to compound solubility in the buffer used for the assay. Indeed, the maximum concentration of 12b that could be reached in the buffer solution used for the functional assay, measured by UV absorption as well as by HPLC, was 2.3 µM.

[5] = [3H]-CP-55,940 displacement, HEK-293 membranes, 90 min at 30 °C, Cheng-Prusoff, read-out: Ki hCB1R (µM ± S.E.)
[6] = read-out: % Displacement/ Max. Conc. Tested, hCB1R
[7] = stable CHO cells expressing the human CB2, read-out: EC50, reduction of NKH-477-induced cAMP levels
[8] = [3H]-CP-55,940 displacement, HEK-293 membranes, 90 min at 30 °C, Cheng-Prusoff, read-out: Ki hCB2R (µM ± S.E.)
[9] = read-out: % Displacement/ Max Conc. Tested, hCB2R (converted)
[10] = max conc. tested 10 µM, read-out: % Displacement/ Max Conc. Tested, hCB2R (converted)

SMILES	Ki [1, 5]	inhibition at 10 µM [1, 6]	Effect on NKH-477-induced cAMP levels (functional behavior) [2]	EC50 [2, 7]	melting point	Ki [3, 8]	inhibition at 25 µM [3, 9]	inhibition at 10 µM [3, 10]	Ki [1]	EC50 [2]	Ki [3]	inhibition at 10 µM ([3]; read-out: % Displacement/ Max Conc. Tested, hCB2R)	inhibition at 25 µM [1, 6]	Antagonism of JWH-133-induced inhibition of NKH-477-induced cAMP formation ([4]; JWH-133 4 µM (EC80) agonist challenge)	EC80 concentration of agonist challenge ([4]; previously determined in separate experiments)
CC(C)(C)N1CC(=NS(=O)(=O)c2ccccc2)N(CC2CC2)C1=O [Compound 10b, N-[1-tert-Butyl-3-cyclopropylmethyl-2-oxoimidazolidin-4-ylidene]benzenesulfonamide]	> 10 µM	10.5%	typical agonist behavior	1.26 µM	114.5 to 115 °C	1.67 ± 0.16 µM	73%	–	–	–	–	–	–	–	–
CC(C)(C)N1CC(=NS(=O)(=O)c2cccc(Br)c2)N(CC2CC2)C1=O [Compound 10e, 3-Bromo-N-[1-tert-Butyl-3-cyclopropylmethyl-2-oxoimidazolidin-4-ylidene]benzenesulfonamide]	> 10 µM	10.8%	typical agonist behavior	0.264 µM	114 to 115 °C	0.34 ± 0.08 µM	–	83.5%	–	–	–	–	–	–	–
CC(C)(C)N1CC(=NS(=O)(=O)c2cccc3ccccc23)N(CC2CC2)C1=O [Compound 10g, N-[1-tert-Butyl-3-cyclopropylmethyl-2-oxoimidazolidin-4-ylidene]naphthalene-1-sulfonamide]	–	24.9%	typical agonist behavior	–	–	–	–	–	> 10 µM	0.072 µM	0.06 ± 0.01 µM	95.7%	–	–	–
COCCN1C(=O)N(C(C)(C)C)CC1=NS(=O)(=O)c1ccc(C)cc1 [Compound 11c, N-[1-tert-Butyl-3-(2-methoxyethyl)-2-oxoimidazolidin-4-ylidene]-4-methylbenzene-1-sulfonamide]	> 10 µM	57%	–	–	106 to 107 °C	> 10 µM	–	33.4%	–	–	–	–	–	–	–
COCCN1C(=O)N(C(C)(C)C)CC1=NS(=O)(=O)c1ccc(Br)cc1 [Compound 11d, 4-Bromo-N-[1-tert-butyl-3-(2-methoxyethyl)-2-oxoimidazolidin-4-ylidene]benzenesulfonamide]	> 10 µM	50.1%	–	–	103.5 to 104 °C	> 10 µM	–	42.7%	–	–	–	–	–	–	–
COCCN1C(=O)N(C(C)(C)C)CC1=NS(=O)(=O)c1cccc(Br)c1 [Compound 11e, 3-Bromo-N-[1-tert-butyl-3-(2-methoxyethyl)-2-oxoimidazolidin-4-ylidene]benzenesulfonamide]	> 10 µM	10%	–	–	104 to 105 °C	> 10 µM	–	41.1%	–	–	–	–	–	–	–
COCCN1C(=O)N(C(C)(C)C)CC1=NS(=O)(=O)c1c(C)cc(C)cc1C [Compound 11f, N-[1-tert-Butyl-3-(2-methoxyethyl)-2-oxoimidazolidin-4-ylidene]-2,4,6-trimethylbenzene-1-sulfonamide]	> 10 µM	55.7%	–	–	141 to 143.5 °C	3.45 ± 0.95 µM	–	64.8%	–	–	–	–	–	–	–
COCCN1C(=O)N(C(C)(C)C)CC1=NS(=O)(=O)c1cccc2ccccc12 [Compound 11g, N-[1-tert-Butyl-3-(2-methoxyethyl)-2-oxoimidazolidin-4-ylidene]naphthalene-1-sulfonamide]	> 10 µM	13.5%	–	–	110.5 to 111 °C	1.66 ± 0.2 µM	–	78.7%	–	–	–	–	–	–	–
COCCN1C(=O)N(C(C)(C)C)CC1=NS(=O)(=O)c1ccc2ccccc2c1 [Compound 11h, N-[1-tert-Butyl-3-(2-methoxyethyl)-2-oxoimidazolidin-4-ylidene]naphthalene-2-sulfonamide]	> 10 µM	45.3%	–	–	129.5 to 130.5 °C	> 10 µM	–	40.1%	–	–	–	–	–	–	–
CS(=O)(=O)N=C1CN(C23CC4CC(CC(C4)C2)C3)C(=O)N1CC1CC1 [Compound 12a, N-[1-Adamant-1-yl-3-cyclopropylmethyl-2-oxoimidazolidin-4-ylidene]methanesulfonamide]	0.21 ± 0.004 µM	–	typical agonist behavior	2.14 µM	199.5 to 200 °C	0.28 ± 0.05 µM	76.5%	–	–	–	–	–	76.5%	–	–
Cc1ccc(S(=O)(=O)N=C2CN(C34CC5CC(CC(C5)C3)C4)C(=O)N2CC2CC2)cc1 [Compound 12c, N-[1-Adamant-1-yl-3-cyclopropylmethyl-2-oxoimidazolidin-4-ylidene]-4-methyl-1-benzenesulfonamide]	> 10 µM	34.6%	–	–	188.5 to 189 °C	> 10 µM	–	20.6%	–	–	–	–	–	–	–
O=C1N(CC2CC2)C(=NS(=O)(=O)c2ccc(Br)cc2)CN1C12CC3CC(CC(C3)C1)C2 [Compound 12d, N-[1-Adamant-1-yl-3-cyclopropylmethyl-2-oxoimidazolidin-4-ylidene]-4-bromo-1-benzenesulfonamide]	> 10 µM	47.9%	–	–	176 to 176.5 °C	> 10 µM	–	32.5%	–	–	–	–	–	–	–
O=C1N(CC2CC2)C(=NS(=O)(=O)c2cccc(Br)c2)CN1C12CC3CC(CC(C3)C1)C2 [Compound 12e, N-[1-Adamant-1-yl-3-cyclopropylmethyl-2-oxoimidazolidin-4-ylidene]-3-bromo-1-benzenesulfonamide]	> 10 µM	5.07%	did not alter the level of cAMP	–	138 to 138.5 °C	0.16 ± 0.03 µM	–	71.4%	–	–	–	–	–	fully antagonize	–
Cc1cc(C)c(S(=O)(=O)N=C2CN(C34CC5CC(CC(C5)C3)C4)C(=O)N2CC2CC2)c(C)c1 [Compound 12f, N-[1-Adamant-1-yl-3-cyclopropylmethyl-2-oxoimidazolidin-4-ylidene]-2,4,6-trimethyl-1-benzenesulfonamide]	> 10 µM	59.2%	–	–	166.5 to 167.5 °C	> 10 µM	–	40.2%	–	–	–	–	–	–	–
O=C1N(CC2CC2)/C(=N/S(=O)(=O)c2cccc3ccccc23)CN1C12CC3CC(CC(C3)C1)C2 [Compound 12g, N-[1-Adamant-1-yl-3-cyclopropylmethyl-2-oxoimidazolidin-4-ylidene]naphtalene-1-sulfonamide]	> 10 µM	12.8%	–	–	188.5 to 189 °C	> 10 µM	–	45.6%	–	–	–	–	–	–	–
O=C1N(CC2CC2)/C(=N/S(=O)(=O)c2ccc3ccccc3c2)CN1C12CC3CC(CC(C3)C1)C2 [Compound 12h, N-[1-Adamant-1-yl-3-cyclopropylmethyl-2-oxoimidazolidin-4-ylidene]naphtalene-2-sulfonamide]	> 10 µM	38.5%	–	–	167 to 167.5 °C	> 10 µM	–	17.7%	–	–	–	–	–	–	–
CCCC(C)(C)c1ccc2c(c1)OC(C)(C)[C@@H]1CC=C(C)C[C@@H]21 [JWH-133, reference compound]	–	–	–	–	–	–	–	–	–	–	–	–	–	–	4 µM
